Source: patent publication US20110195041A1, “ANTIMICROBIAL COMPOSITIONS” (NDSU RESEARCH FOUNDATION, priority 2008, published 2011)
≈ marks a conversion by molar mass, not a printed value.

Columns and labels:
C. lytica = test: Minimum inhibitory concentration (MIC) of triclosan; assay type: cell-based; settings: Cellulophaga lytica; marine broth; range 0.2 to 25 μg/mL; complete growth inhibition
Description: (§1) The antimicrobial activity of triclosan toward the microorganisms of interest was determined by measuring the minimum inhibitor concentration (MIC). The protocol for determining the minimum inhibitory concentration (MIC) of antimicrobial agents in solution has been reported previously (described in Stafslien, S., et al., Biofouling, 2007. 23(1/2): 37-44.). Triclosan was serially diluted (2-fold) in marine broth, tryptic soy broth, and Guillard's F/2 medium for the MIC evaluation of C. lytica, S. epidermidis or E. coli, and N. incerta, respectively. The triclosan concentration range evaluated was from 0.2 μg/mL to 25 μg/mL.

S. epidermidis = test: as above; assay type: cell-based; settings: Staphylococcus epidermidis; tryptic soy broth; range 0.2 to 25 μg/mL; complete growth inhibition
Description: as §1

`Oc1cc(Cl)ccc1Oc1ccc(Cl)cc1Cl` [Triclosan, 5-chloro-2-(2,4-dichlorophenoxy)phenol] was tested, and the MIC (C. lytica) was 12.5 µg/mL (≈ 43.2 µM) and the MIC (S. epidermidis) was ≤ 0.2 µg/mL.
